Laboratory results reported in paper PMC6035067 (The Biochemical journal, 2018).
“Also recorded” adds a separate entry of the source. Where two headings read alike, the source gives them in different places.

What was measured:
EtCYP112 [1] = biological target: T1, EtCYP112 (Erwinia tracheiphila, UniProt A0A0M2KIP9); test: UV-Vis spectral binding titration of EtCYP112; conditions: for shift of the Soret-band from 419 to 391 nm: upon ligand addition
EtCYP112 [2] = biological target: T1, EtCYP112; assay type: biochemical; conditions: 20 μM substrate, 60 μM NADPH, 12 h at 25 °C
EtCYP112 [3] = biological target: T1, EtCYP112; conditions: previously tested as substrates; ref [9]; cited from earlier work
[4] = conversion of EtCYP112 to high-spin state upon ligand addition
[5] = α-band absorption at 570 nm upon ligand addition

conversion by EtCYP112 (products observed) (EtCYP112 [2])	SMILES	High Spin State (EtCYP112 [1]; [4])	α-band Absorbtion (EtCYP112 [1]; [5])	further results
	C=C1C[C@]23C[C@H]1CC[C@H]2[C@@]12CCC[C@@](C)(C(=O)OC1)[C@H]2[C@@H]3C(=O)O [GA15 (closed lactone), GA15]	> 90%	decreased	
no products were observed	C=C1C[C@@]23CC[C@H]4[C@@](C)(CCC[C@@]4(C)C=O)[C@@H]2CC[C@@H]1C3 [ent-kaurenal]	5 – 10%	decreased	
did not serve as substrates	C=C1C[C@@]23CC[C@@H]4C(C)(C)CCC[C@@]4(C)[C@@H]2CC[C@@H]1C3 [ent-kaurene]	< 5%	no decrease; also recorded: unchanged	shift of the Soret-band from 419 to 391 nm (EtCYP112 [1]): only induces a small shift
	C=C1C[C@]23C[C@H]1CC[C@H]2[C@@]12CCC[C@@](C)(C(=O)OC1)[C@H]2[C@@H]3C(=O)OC [MeGA15]	80 – 90%	decreased	fold more tightly bound than the analogous form of free GA15 (EtCYP112 [1]; MeGA15 (closed δ-lactone) relative to GA15 closed lactone): about 6 fold; conversion by EtCYP112 (EtCYP112 [3]): converted by EtCYP112 to GA9
	C=C1C[C@]23C[C@H]1CC[C@H]2[C@]1(C=O)CCC[C@@](C)(C(=O)OC)[C@H]1[C@@H]3C(=O)OC [MeGA24]	5 – 10%	no decrease; also recorded: unchanged	shift of the Soret-band from 419 to 391 nm (EtCYP112 [1]): only induces a partial shift; conversion by EtCYP112 (EtCYP112 [3]): does not react
	C=C1C[C@]23C[C@H]1CC[C@H]2[C@]1(C)CCC[C@@](C)(C(=O)O)[C@H]1[C@@H]3C(=O)O [GA12]	> 90%	decreased	
no products were observed	C=C1C[C@@]23CC[C@H]4[C@@](C)(CCC[C@@]4(C)C(=O)OC)[C@@H]2CC[C@@H]1C3 [methyl-ent-kaurenoate]	10 – 15%	decreased	
	C=C1C[C@]23C[C@H]1CC[C@H]2[C@]1(C=O)CCC[C@@](C)(C(=O)O)[C@H]1[C@@H]3C(=O)O [GA24]	80 – 90%	decreased	
	C=C1C[C@]23C[C@H]1CC[C@H]2[C@]1(C)CCC[C@@](C)(C(=O)OC)[C@H]1[C@@H]3C(=O)OC [MeGA12]	50 – 60%	decreased	fold higher Kd than free GA12 (EtCYP112 [1]; Kd of MeGA12 relative to GA12): 5 fold; conversion by EtCYP112 (EtCYP112 [3]): converted by EtCYP112 to GA9
	C=C1C[C@]23C[C@H]1CC[C@H]2[C@]1(CO)CCC[C@@](C)(C(=O)O)[C@H]1[C@@H]3C(=O)O [GA15 (open lactone), GA15]			High Spin State (EtCYP112 [1]): > 90%; α-band Absorbtion (EtCYP112 [1]): decreased
	C=C1C[C@]23C[C@H]1CC[C@H]2[C@@]12CCC[C@@](C)(C(=O)O1)[C@H]2[C@@H]3C(=O)O [GA9]	< 5%	without any decrease; also recorded: unchanged	shift of the Soret-band from 419 to 391 nm (EtCYP112 [1]): ~5%
	C=C1C[C@]23C[C@H]1CC[C@H]2[C@]1(C(=O)O)CCC[C@@](C)(C(=O)O)[C@H]1[C@@H]3C(=O)O [GA25]	10 – 20%	without any decrease; also recorded: unchanged	shift of the Soret-band from 419 to 391 nm (EtCYP112 [1]): 10–20%; conversion by EtCYP112 (EtCYP112 [3]): does not react
no products were observed	C=C1C[C@@]23CC[C@@H]4[C@](C)(CO)CCC[C@@]4(C)[C@@H]2CC[C@@H]1C3 [ent-kaurenol]	20 – 30%	decreased	

SMILES	conversion by EtCYP112 (products observed) (EtCYP112 [2])	High Spin State (EtCYP112 [1]; [4])	α-band Absorbtion (EtCYP112 [1]; [5])	further results
C=C1C[C@]23C[C@H]1CC[C@H]2[C@]1(C)CCC[C@@](C)(C(=O)O)[C@H]1[C@@H]3C=O [GA12-aldehyde]	transformed into two products	> 90%	decreased	
C=C1C[C@@]23CC[C@H]4[C@@](C)(CCC[C@@]4(C)C(=O)O)[C@@H]2CC[C@@H]1C3 [ent-kaurenoic acid]	no products were observed	50 – 60%	decreased	
C=C1C[C@]23C[C@H]1CC[C@H]2[C@]1(C)CCC[C@@](C)(C(=O)O)[C@H]1C[C@@H]3O (single isomer, unassigned) [ent-7α-hydroxy kaurenoic acid]	no products were observed	50 – 60%	decreased	
